Test results published in US10828266B2, “Topical regional neuro-affective therapy with caryophyllene” (Afgin Pharma, LLC, priority 2016, dated 2020).

What was measured:
human patients [1] = assay: Topical Cari-Derm (3% caryophyllene) on the back of the neck of human patients, case series of Table 1; type: in vivo
Procedure: (§1) The following patients were treated with a topical caryophyllene formulation (referred to in Table 1 as “Cari-Derm”, which is a topical 3% caryophyllene formulation) administered on the back of the neck on human patients, as more specifically described below in Table 1. The 3% Cari-Derm formulation contained approximately 30 mg of caryophyllene in a unit dose (1 gram).

human patients [2] = assay: Response to earlier or current medication as given in the patient history of Table 1; type: in vivo; settings: patient 11, autism and seizures with poor vision and focus
Procedure: as §1

[3] = target: cannabinoid receptor type-1 (CB1) (Homo sapiens, UniProt P21554); settings: centrally expressed receptor; background statement; cited from earlier work
CB2 receptors = CB2 receptors (Homo sapiens, UniProt P34972); settings: background statement; cited from earlier work
human patients [4] = assay: Inventor's observation of onset and duration of therapeutic effect after administration of caryophyllene at the back of the neck; type: in vivo
Procedure: The inventor has observed rapid therapeutic onset of action, generally, less than 10 to 15 minutes administration of caryophyllene at the back of the neck, with maximal benefit noted well within 30 minutes. In certain embodiments, a prolonged therapeutic effect has been noted, e.g., about 4 to about 12 hours or more, depending on condition and severity of the condition being treated.

Chain of CB2 receptors (P34972 whole entry): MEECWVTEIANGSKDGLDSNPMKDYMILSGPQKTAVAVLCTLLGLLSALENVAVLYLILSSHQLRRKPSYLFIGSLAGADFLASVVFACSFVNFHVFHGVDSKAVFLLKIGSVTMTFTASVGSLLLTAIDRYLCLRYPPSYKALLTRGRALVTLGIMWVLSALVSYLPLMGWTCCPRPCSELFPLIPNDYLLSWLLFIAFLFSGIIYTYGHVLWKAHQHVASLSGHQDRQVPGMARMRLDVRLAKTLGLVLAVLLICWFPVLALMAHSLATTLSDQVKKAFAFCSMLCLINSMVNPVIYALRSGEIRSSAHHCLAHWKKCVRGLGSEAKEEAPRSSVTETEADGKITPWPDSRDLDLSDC
Chain of cannabinoid receptor type-1 (CB1) (P21554 whole entry): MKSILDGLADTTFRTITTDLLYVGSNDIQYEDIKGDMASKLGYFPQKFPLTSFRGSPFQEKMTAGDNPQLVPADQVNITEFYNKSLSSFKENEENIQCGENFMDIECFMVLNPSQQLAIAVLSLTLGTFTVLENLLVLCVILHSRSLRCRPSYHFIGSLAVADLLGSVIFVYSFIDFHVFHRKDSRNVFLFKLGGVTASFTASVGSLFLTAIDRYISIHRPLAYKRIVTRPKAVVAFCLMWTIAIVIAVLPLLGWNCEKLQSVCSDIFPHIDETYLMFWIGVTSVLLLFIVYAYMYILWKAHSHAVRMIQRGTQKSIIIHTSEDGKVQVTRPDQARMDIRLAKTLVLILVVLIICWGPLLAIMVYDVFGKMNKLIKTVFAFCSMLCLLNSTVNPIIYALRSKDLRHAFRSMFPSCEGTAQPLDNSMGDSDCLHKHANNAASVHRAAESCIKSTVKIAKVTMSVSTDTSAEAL

Compound: C=C(C)[C@@H]1CCC(C)=C[C@H]1c1c(O)cc(CCCCC)cc1O [CBD, cannabidiol]
- patient's comparison of CBD with Cari-Derm for headache (human patients [1]; patient 35, chronic headaches and ADHD, uses topical CBD cream): CBD worked better.

Compound: COC(=O)C(c1ccccc1)C1CCCCN1 (stereo not shown) [Ritalin, methylphenidate]
- agitation on earlier medication (human patients [2]): benefit; increased agitation

Compound: amphetamine, dextroamphetamine mixed salts [Adderall]
- agitation on earlier medication (human patients [2]): benefit; increased agitation

Compound: C=C1CC/C=C(\C)CC[C@@H]2[C@@H]1CC2(C)C (relative stereo) [caryophyllene, trans-(1R,9S)-8-Methylene-4,11,11-trimethylbicyclo[7.2.0]undec-4-ene]
- binding to cannabinoid receptor type-1 (CB1) [3]: does not bind
- action on CB2 receptors (CB2 receptors): acts on CB2 receptors
- maximal benefit noted (human patients [4]): ≤ 30 min
- therapeutic onset of action (human patients [4]; generally): 10 to 15 min

Compound: CN1CCc2cccc3c2[C@H]1Cc1ccc(O)c(O)c1-3 [Apomorphine, apomorphine]
- neck range of motion and pain on adding topical apomorphine (human patients [1]; patient 14, torticollis with neck pain, apomorphine added after Cari-Derm): improved further.
- tremors, focus, talkativeness with added Apomorphine (human patients [1]; patient 20, Parkinson's disease, Apomorphine 5 mg after Cari-Derm): Cari-Derm; further improved
- focus, spontaneity, gait after additional Apomorphine (human patients [1]; patient 23, poor focus, impulsivity, gait problems from Parkinson's, additional 5 mg Apomorphine after Cari-Derm): further improvement noted.
